Data on ten compounds can be found in ChEMBL document CHEMBL1201862, “PubChem BioAssay data set” (2004).

In assay [1] the target is Disintegrin and metalloproteinase domain-containing protein 17 (Homo sapiens, UniProt P78536). Put plainly: exosite inhibitors of ADAM17, dose response, biochemical (AID 743260).
Assay [2] in a line: inhibition of ADAM10 peptide cleavage – biochemical, FRET peptide substrate, recombinant human ADAM10, selectivity assay for ADAM17 exosite inhibitor project, dose response (AID 743259).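 Further: ADAM10 enzyme cleaving a FRET peptide substrate.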
Assay [3] can be described thus: PAX5 cellular inhibition readout – cell-based, plate reader, dry powder samples, selectivity assay for PAX8 inhibitor project, dose response (AID 743047).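 Further: HEK293 cells carrying a Pax5 driven CD19 promoter luciferase reporter; potency of inhibitors that lower reporter luminescence.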 The class given is functional.
Assay [4] in a line: OVCAR8 cell viability loss – plate reader, dry powder samples, PAX8 project, dose response (AID 743197). The class given is functional, cell-based. The note with it: OVCAR-8.
Assay [5] can be described thus: blockers of HIV-1 envelope-mediated cell-cell fusion – cherry-pick, dose response (AID 652057). The class given is functional, cell-based.
The nature of assay [6]: inhibitors acting on PAX2 in cells – cell-based, plate reader, dry powder samples, selectivity assay for PAX8 inhibitor project, dose response (AID 743048).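 Further: HEK293 cells carrying a WT1 promoter luciferase reporter driven by expressed Pax2; potency is for inhibition of Pax2 driven reporter signal.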 It counts as functional.
Assay [7] in a line: OVCAR4 cell viability loss – plate reader, dry powder, SA11, cytotoxicity control for PAX8 inhibitor project, dose response (AID 743150). The class given is functional, cell-based. The note with it: OVCAR-4.
Assay [8] is described as follows: PAX8-dependent cell viability loss – plate reader, dry powder, dose response (AID 743049). The class given is functional, cell-based.
Assay [9] is described as follows: COV434 cell viability loss – plate reader, dry powder, SA7, cytotoxicity control for PAX8 inhibitor project, dose response (AID 743145). It counts as functional, cell-based.
A short description of assay [10]: OV-90 cell viability loss – plate reader, dry powder, SA8, PAX8 inhibitor project, dose response (AID 743149). It counts as functional, cell-based.
The target in assay [11] is Paired box protein Pax-8 (Homo sapiens, UniProt Q06710). Briefly: PAX8 transcriptional activity inhibition in RMG-I – RMG-I cells, luciferase, cherry-pick, dose response (AID 687027).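 Further: luciferase reporter driven by Pax8 target thyroperoxidase promoter measured by SteadyGlo luminescence.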 The class given is functional, cell-based.
Paired box protein Pax-8, sequence (Q06710 whole entry): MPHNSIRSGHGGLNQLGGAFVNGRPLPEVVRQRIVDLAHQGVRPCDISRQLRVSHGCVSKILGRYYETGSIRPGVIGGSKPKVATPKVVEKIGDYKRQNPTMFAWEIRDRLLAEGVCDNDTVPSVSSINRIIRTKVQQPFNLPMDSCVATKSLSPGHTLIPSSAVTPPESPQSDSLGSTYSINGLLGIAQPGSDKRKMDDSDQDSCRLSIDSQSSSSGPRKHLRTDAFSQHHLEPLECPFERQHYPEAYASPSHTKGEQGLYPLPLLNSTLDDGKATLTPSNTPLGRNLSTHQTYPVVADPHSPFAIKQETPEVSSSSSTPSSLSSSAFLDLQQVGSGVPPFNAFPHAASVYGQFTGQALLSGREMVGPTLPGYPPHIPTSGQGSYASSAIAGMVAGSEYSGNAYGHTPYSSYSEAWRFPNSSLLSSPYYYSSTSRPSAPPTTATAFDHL
A short description of assay [12]: OVCAR-3 cell viability loss – plate reader, dry powder samples, PAX8 inhibitor project, dose response (AID 743044). The class given is functional, cell-based.
Assay [13] addresses Potassium channel subfamily K member 3 (Homo sapiens, UniProt O14649). Briefly: inhibition of human KCNK3 channel flux – CHO cells, FluxOR thallium flux, SAR follow-up (AID 652212). It counts as functional.
The target of assay [14] is Potassium channel subfamily K member 9 (Homo sapiens, UniProt Q9NPC2). Briefly: KCNK9 flux blockade, concentration-response – cell-based, FluxOR thallium flux, selectivity assay for TASK1 inhibitor project, SAR follow-up (AID 652211).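 Further: potency is for inhibitors of the channel.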 The class given is functional.
Potassium channel subfamily K member 9, sequence (Q9NPC2 whole entry, the tested form may be a part): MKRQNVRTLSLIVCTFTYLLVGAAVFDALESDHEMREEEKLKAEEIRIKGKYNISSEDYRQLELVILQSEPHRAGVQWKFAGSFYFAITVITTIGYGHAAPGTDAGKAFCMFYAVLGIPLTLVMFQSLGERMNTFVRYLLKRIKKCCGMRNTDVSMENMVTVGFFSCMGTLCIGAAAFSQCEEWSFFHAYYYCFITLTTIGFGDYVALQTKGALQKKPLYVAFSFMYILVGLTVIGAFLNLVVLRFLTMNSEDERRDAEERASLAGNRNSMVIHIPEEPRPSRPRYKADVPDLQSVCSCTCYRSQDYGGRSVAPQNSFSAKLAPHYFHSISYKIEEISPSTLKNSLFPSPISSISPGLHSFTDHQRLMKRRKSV
The target in assay [15] is Potassium channel subfamily K member 3 (Rattus norvegicus, UniProt O54912). Put plainly: SAR analysis for the identification of selective inhibitors of the two-pore domain potassium channel TASK1(KCNK3):Automated Electrophysiology. It counts as functional.
Potassium channel subfamily K member 3 (Rattus norvegicus, UniProt O54912), sequence (O54912 whole entry, the tested form may be a part): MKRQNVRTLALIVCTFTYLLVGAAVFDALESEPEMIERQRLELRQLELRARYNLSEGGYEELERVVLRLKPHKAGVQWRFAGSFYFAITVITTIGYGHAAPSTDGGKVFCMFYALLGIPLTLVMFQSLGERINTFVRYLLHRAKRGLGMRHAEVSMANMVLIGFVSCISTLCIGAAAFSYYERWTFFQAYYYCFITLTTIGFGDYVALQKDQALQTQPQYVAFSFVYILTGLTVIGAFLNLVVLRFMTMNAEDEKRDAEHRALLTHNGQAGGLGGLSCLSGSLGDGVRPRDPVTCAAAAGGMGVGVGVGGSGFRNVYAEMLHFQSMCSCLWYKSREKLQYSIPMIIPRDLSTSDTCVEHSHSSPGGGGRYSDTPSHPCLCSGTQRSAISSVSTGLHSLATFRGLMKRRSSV
In assay [16] the target is Metabotropic glutamate receptor 3 (Rattus norvegicus, UniProt P31422). Put plainly: inhibitors of rat mGlu3 Galpha15 signaling – TREx293 cells, calcium flux, mGlu3 NAM project, dose response (AID 651840). The class given is functional. Background: Calcium assays in cells follow changes in intracellular calcium, usually with a dye or a luminescent sensor.
Metabotropic glutamate receptor 3, sequence (P31422 whole entry): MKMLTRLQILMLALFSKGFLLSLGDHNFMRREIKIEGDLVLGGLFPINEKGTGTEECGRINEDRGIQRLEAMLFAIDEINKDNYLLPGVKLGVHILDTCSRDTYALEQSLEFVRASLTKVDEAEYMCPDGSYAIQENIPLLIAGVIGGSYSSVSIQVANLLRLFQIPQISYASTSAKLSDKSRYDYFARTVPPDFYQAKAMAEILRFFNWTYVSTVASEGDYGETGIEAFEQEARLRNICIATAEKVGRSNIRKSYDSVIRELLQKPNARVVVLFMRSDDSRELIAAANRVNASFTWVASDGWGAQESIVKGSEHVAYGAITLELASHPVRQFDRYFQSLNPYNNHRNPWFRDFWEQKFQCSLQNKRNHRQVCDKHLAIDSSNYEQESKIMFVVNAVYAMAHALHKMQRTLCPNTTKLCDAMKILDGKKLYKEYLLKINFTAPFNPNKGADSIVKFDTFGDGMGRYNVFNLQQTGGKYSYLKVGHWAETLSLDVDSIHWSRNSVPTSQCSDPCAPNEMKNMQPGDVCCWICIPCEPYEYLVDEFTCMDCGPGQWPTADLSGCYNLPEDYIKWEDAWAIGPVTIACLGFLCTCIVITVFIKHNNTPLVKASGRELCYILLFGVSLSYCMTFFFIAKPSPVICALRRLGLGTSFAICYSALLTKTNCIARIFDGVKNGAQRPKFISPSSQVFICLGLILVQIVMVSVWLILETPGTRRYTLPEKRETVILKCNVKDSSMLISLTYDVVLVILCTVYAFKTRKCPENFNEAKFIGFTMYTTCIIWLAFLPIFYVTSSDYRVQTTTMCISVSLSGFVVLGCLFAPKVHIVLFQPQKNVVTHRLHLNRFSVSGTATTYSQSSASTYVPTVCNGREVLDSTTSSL
The target of assay [17] is Kallikrein-7 (Homo sapiens, UniProt P49862). Briefly: Fluorescence Intensity-based biochemical primary high throughput dose response assay to identify activators of kallikrein-7 (K7) zymogen.
Kallikrein-7, sequence (P49862 whole entry): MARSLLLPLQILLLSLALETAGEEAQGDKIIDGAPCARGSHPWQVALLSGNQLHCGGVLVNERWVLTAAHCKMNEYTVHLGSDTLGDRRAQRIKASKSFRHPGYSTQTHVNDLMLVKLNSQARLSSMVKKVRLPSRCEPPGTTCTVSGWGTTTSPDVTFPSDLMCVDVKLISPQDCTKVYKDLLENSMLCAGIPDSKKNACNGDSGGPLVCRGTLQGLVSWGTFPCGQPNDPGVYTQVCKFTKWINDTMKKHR
For assay [18], the target named is T1, Mannose-6-phosphate isomerase (Homo sapiens, UniProt P34949).
T1 sequence (P34949 whole entry): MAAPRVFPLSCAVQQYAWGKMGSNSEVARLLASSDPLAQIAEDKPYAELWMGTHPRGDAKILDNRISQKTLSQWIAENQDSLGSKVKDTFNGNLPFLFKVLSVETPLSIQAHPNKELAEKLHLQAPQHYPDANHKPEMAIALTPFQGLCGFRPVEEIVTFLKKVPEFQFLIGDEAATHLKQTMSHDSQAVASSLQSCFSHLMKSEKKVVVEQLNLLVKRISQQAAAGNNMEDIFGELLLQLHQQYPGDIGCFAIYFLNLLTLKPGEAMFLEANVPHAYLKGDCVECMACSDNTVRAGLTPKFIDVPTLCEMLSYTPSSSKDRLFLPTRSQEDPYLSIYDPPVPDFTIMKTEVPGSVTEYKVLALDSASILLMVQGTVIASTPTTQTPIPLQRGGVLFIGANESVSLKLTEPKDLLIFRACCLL
Put plainly: MPI enzyme activity inhibition – biochemical, fluorescence intensity, coupled assay, primary screen (AID 1209).

Assay [19] deals with T-cell. Put plainly: loss of vesicle association with mouse CD8+ T cells – mouse 2C CD8+ T cells, flow cytometry, dose response (AID 485284). The class given is functional. In general terms: In flow cytometry, cells or beads pass a laser one at a time.
Assay [20] can be described thus: optical artefact potency, substrate without enzyme – biochemical, fluorescence intensity, triplicate, artefact control for kallikrein-7 zymogen activator project, dose response (AID 720493).
Assay [21] in a line: blockade of melanocortin 4 receptor signaling – cell-based, plate reader, cherry pick, counter-screen for LGR2 antagonist project, dose response (AID 743444).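 Further: transfected HEK 293 cells stimulated with alpha-MSH peptide; potency of inhibitors of the alpha-MSH evoked signal.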 It counts as functional. (In general: A counterscreen serves to expose hits that act by an unwanted route or on another target.)
The nature of assay [22]: inhibition of bursicon-driven LGR2 cAMP signaling – cell-based, HEK293, CRE-luciferase reporter, cherry pick, dose response (AID 743342). It counts as functional.
The nature of assay [23]: A549 cell cytotoxicity, dose response, cytotoxicity control, plate reader, cherry-pick, antagonist series (AID 743412). It counts as functional, cell-based.
Assay [24] is described as follows: kidney cell line viability loss – HEK293T, luminescence plate reader, powder samples, set 4, cytotoxicity control, dose response (AID 651863). The class given is functional, cell-based. Particulars: HEK293.
Assay [25] in a line: Late stage assay provider results from the probe development effort to identify selective inhibitors of heat shock protein 90 (HSP90): Absorbance-based cell proliferation assay in MCF7 cells. The class given is functional.
The nature of assay [26]: Late stage assay provider results from the probe development effort to identify selective inhibitors of heat shock protein 90 (HSP90): Absorbance-based cell proliferation assay in SKBR3 cells. It counts as functional. The note with it: SK-BR-3.
Assay [27] in a line: anti-trypanosomal activity in BESM host cells – imaging, CA-I/72 strain, bovine embryo skeletal muscle, dry powder, dose response (AID 651885). The class given is functional, cell-based.
Assay [28] is described as follows: T. cruzi growth inhibition in host cells, dose response, cell-based, plate reader, dry powder, set 2 (AID 652275). It counts as functional.
Assay [29] is described as follows: Luminescence Cell-Based Dose Retest to Confirm Inhibitors of Cancer Stem Cells. [Related pubchem assays (depositor defined):AID2717, AID2721]. Particulars: Homo sapiens. The class given is functional, Homo sapiens.
A short description of assay [30]: NIH-3T3 fibroblast cytotoxicity, dose response, cytotoxicity control, cell-based, fluorescence, Alamar Blue, secondary assay (AID 2327).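 Further: NIH-3T3 mouse fibroblasts cultured with fluconazole at 8 µg/mL.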 The class given is functional.
Assay [31] can be described thus: HGIII-sPLA2 enzyme inhibition potency – biochemical, QFRET, IC50, dose response (AID 743457).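 Further: green fluorescence rise as the enzyme cleaves BODIPY PC-A2 in liposomes.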
Assay [32] is described as follows: fluconazole-exposed Candida albicans growth modulators – fluorescence, retest, confirmation (AID 2467). It counts as functional, cell-based.

SMILES strings stand for the structures. pIC50: −log10 of the molar value. The source made the active and inactive calls.

Potassium channel subfamily K member 3 (Homo sapiens, UniProt O14649), sequence (O14649 whole entry): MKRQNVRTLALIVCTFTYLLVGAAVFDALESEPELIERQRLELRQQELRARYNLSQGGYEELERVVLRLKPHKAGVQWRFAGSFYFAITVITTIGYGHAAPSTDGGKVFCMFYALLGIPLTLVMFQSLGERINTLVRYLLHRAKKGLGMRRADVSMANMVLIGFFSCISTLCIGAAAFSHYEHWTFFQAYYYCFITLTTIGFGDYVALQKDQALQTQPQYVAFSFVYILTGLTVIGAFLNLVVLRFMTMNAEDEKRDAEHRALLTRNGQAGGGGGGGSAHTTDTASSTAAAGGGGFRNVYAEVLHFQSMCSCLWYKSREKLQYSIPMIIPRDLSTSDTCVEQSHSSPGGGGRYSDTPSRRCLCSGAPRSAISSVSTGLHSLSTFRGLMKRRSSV
Disintegrin and metalloproteinase domain-containing protein 17, sequence (P78536 whole entry, the tested form may be a part): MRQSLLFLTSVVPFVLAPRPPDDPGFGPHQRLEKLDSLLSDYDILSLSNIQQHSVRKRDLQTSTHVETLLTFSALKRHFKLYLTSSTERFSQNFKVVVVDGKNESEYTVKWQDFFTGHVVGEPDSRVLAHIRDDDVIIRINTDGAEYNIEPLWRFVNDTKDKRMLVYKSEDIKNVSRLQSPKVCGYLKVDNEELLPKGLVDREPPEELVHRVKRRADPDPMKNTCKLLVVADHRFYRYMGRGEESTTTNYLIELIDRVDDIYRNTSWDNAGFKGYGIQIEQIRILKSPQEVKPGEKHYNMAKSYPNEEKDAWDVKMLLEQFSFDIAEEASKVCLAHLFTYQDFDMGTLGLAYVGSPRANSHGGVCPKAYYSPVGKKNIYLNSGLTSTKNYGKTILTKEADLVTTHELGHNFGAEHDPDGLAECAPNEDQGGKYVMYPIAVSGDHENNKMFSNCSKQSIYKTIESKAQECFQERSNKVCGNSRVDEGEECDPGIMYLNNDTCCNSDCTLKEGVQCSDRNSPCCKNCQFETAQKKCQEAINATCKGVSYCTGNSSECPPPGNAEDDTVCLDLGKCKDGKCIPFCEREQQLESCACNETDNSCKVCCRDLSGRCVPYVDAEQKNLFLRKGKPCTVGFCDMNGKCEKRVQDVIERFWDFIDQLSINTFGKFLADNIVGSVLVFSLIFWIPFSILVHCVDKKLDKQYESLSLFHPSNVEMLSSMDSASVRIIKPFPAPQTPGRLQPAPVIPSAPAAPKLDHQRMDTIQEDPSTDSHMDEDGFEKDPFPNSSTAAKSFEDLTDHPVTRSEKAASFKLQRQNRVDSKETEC

In the case of `CCOC(=O)c1c(NC(=O)Cn2nc(C(F)F)cc2C(F)F)sc(C)c1C`, the IC50 in assay [1] and in [2] was > 69.5 µM (inactive) in each case.
Take `COc1ccccc1C#Cc1ccc2c(c1)O[C@@H](CN(C)Cc1ccncc1)[C@H](C)CN([C@H](C)CO)S2(=O)=O`: the AC50 (usually the concentration at which the activity in the assay is half-maximal) in assay [3] is 9.35 µM (active); in [4], 27.7 µM (active); in assay [5], 42.1 µM (active); in assay [6] it was 2.28 µM (active); in assay [7] it was 11.5 µM (active); in assay [8], 4.51 µM (active). The AC50 in assay [9] is 0.0946 nM (active); in assay [10], 7.34 µM (active); in [11] it was 2.39 µM (active); in assay [12], 13.3 µM (active).
With `Cc1cccc(C(=O)Nc2cccc(NC(=O)c3ccccc3)c2)c1`, the IC50 (commonly the concentration that inhibits the measured activity by half) is 0.015 µM (active) in assay [13], 0.36 µM (active) in [14] and 0.075 µM (active) in [15].
Take `COc1ccc(C#Cc2ccc(C(=O)N3CCC(=O)C(C)C3)cc2)cc1` (configuration not stated): the pIC50 (commonly −log10 of the IC50, conventionally taken in molar units) in [16] was 5.05.
For the compound `Cc1c2cccn2cc[n+]1C`, the EC50 – broadly, the concentration that produces a half-maximal response – in assay [17] was 17.5 µM (inactive); in assay [19], 79.2 µM (inactive); in assay [20], > 7.72 µM (active). Also, the IC50 in [18] is reported as > 50 µM (not active).
In the case of `C[C@H](CO)N1C[C@H](C)[C@H](CN(C)C(=O)Nc2ccccc2)OCCCC[C@H](C)Oc2ccc(NC(=O)Nc3ccc4c(c3)OCO4)cc2C1=O`, the AC50 is 25.4 µM (active) in assay [21], 36.6 µM (active) in assay [22] and > 52 µM (inactive) in assay [23].
In the case of `Cc1ccc(S(=O)(=O)NNc2nc(NCC(N)=O)nc3ccccc23)cc1`, in [24], the AC50 was > 52 µM (inactive).
On to `Cc1c(Cl)c(=O)oc2c(C)c(OCc3ccccc3)ccc12`, for which the IC50 in [25] and in assay [26] was > 100 µM (inactive) throughout.
For the compound `C[C@@H]1CN([C@@H](C)CO)C(=O)c2cc(-c3cncnc3)cnc2O[C@H]1CN(C)Cc1ccc(Oc2ccccc2)cc1`, in assay [27], the IC50 is > 20 µM (inactive). Moreover, the AC50 in assay [28] is 0.403 µM (active).
With `Cc1cc(C)c2nc(NNC(=O)c3cc(-c4cccs4)nc4ccccc34)sc2c1`, the AC50 in assay [29] was 2.13 µM (active). Also, the 50% effective concentration (EC50) was 10.7 µM (active) in assay [30] and > 38 µM (not active) in assay [32]. In addition, in assay [31], the IC50 was 53.9 µM (inactive).
